# Experimental data from US20220323406A1, “METHODS AND COMPOSITIONS FOR DIFFERENTIATING STEM CELLS” (Massachusetts Institute of Technology, priority 2019, published 2022).
# Counter-ions that a name gives are not always drawn.
# Columns and labels:
# [1] = tested on: ENR+CD organoids (ISC to Paneth cell differentiation); assay: Primary screen: basal (non-stimulated) lysozyme secretion LYZ.NS, 2.5-D 384-well ENR+CD organoid differentiation; format: cell-based, mouse; conditions: primary screen; for Z.LYZ.NS: standard z score
# From the text: (§1) High-throughput screening.
# [2] = tested on: ENR+CD organoids (ISC to Paneth cell differentiation); assay: Primary screen: CCh-stimulated lysozyme secretion LYZ.S, 2.5-D 384-well ENR+CD organoid differentiation; format: cell-based, mouse; conditions: primary screen
# From the text: as §1
# ENR+CD organoids = assay: Primary screen: ATP (CellTiter-Glo 3D, CTG) cell number/viability, 2.5-D 384-well ENR+CD organoids; conditions: primary screen; for Z.CTG: standard z score;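 as to all read-outs here: compounds given at plating and again on day 3 over a 6-day differentiation from ENR+CV stem-cell-enriched precursors, ATP measured on day 6, plate median as control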
# [3] = dose 0.08 uM, FC relative to plate median
# [4] = dose 0.40 uM, FC relative to plate median
# [5] = dose 2.00 uM, FC relative to plate median
# [6] = dose 10.00 uM, FC relative to plate median
# [7] = dose 0.08 uM, FC vs plate median
# [8] = dose 0.40 uM, FC vs plate median
# [9] = dose 2.00 uM, FC vs plate median
# [10] = dose 10.00 uM, FC vs plate median
Molecule,Dose.FC.LYZ.NS ([1]; dose 0.08 uM),Z.LYZ.NS (standard z score) ([1]; dose 0.08 uM),Dose.FC.LYZ.NS ([1]; dose 0.40 uM),Z.LYZ.NS (standard z score) ([1]; dose 0.40 uM),Dose.FC.LYZ.NS ([1]; dose 2.00 uM),Z.LYZ.NS (standard z score) ([1]; dose 2.00 uM),Dose.FC.LYZ.NS ([1]; dose 10.00 uM),Z.LYZ.NS (standard z score) ([1]; dose 10.00 uM),Dose.FC.LYZ.S ([2]; dose 0.08 uM),Dose.FC.LYZ.S ([2]; dose 0.40 uM),Dose.FC.LYZ.S ([2]; dose 2.00 uM),Dose.FC.LYZ.S ([2]; dose 10.00 uM),Dose.FC.CTG (ENR+CD organoids; dose 0.08 uM),Z.CTG (standard z score) (ENR+CD organoids; dose 0.08 uM),Dose.FC.CTG (ENR+CD organoids; dose 0.40 uM),Z.CTG (standard z score) (ENR+CD organoids; dose 0.40 uM),Dose.FC.CTG (ENR+CD organoids; dose 2.00 uM),Z.CTG (standard z score) (ENR+CD organoids; dose 2.00 uM),Dose.FC.CTG (ENR+CD organoids; dose 10.00 uM),Z.CTG (standard z score) (ENR+CD organoids; dose 10.00 uM),other results
CN(C)C(=O)c1ccc(S(=O)(=O)c2ccc(NC(=O)[C@@](C)(O)C(F)(F)F)c(Cl)c2)cc1 [AZD7545],0.087 log2 fold change,0.758,−0.028 log2 fold change,−0.245,−0.018 log2 fold change,−0.155,−0.051 log2 fold change,−0.441,0.111 log2 fold change,−0.017 log2 fold change,−0.148 log2 fold change,−0.104 log2 fold change,−0.334 log2 fold change,−0.798,−0.158 log2 fold change,−0.378,−0.255 log2 fold change,−0.608,−0.350 log2 fold change,−0.836,
CN1CC(=O)N2[C@H](c3ccc4c(c3)OCO4)c3[nH]c4ccccc4c3C[C@@H]2C1=O [Tadalafil],,,,,,,,,,,,,,,,,,,,,"Dose.FC.LYZ.NS [1, 3]: 0.102 log2 fold change; Z.LYZ.NS ([1]; dose 0.08 uM): 0.887; Dose.FC.LYZ.NS [1, 4]: 0.027 log2 fold change; Z.LYZ.NS ([1]; dose 0.40 uM): 0.233; Dose.FC.LYZ.NS [1, 5]: 0.130 log2 fold change; Z.LYZ.NS ([1]; dose 2.00 uM): 1.128; Dose.FC.LYZ.NS [1, 6]: 0.061 log2 fold change; Z.LYZ.NS ([1]; dose 10.00 uM): 0.534; Dose.FC.LYZ.S [2, 3]: 0.091 log2 fold change; Dose.FC.LYZ.S [2, 4]: 0.095 log2 fold change; Dose.FC.LYZ.S [2, 5]: 0.223 log2 fold change; Dose.FC.LYZ.S [2, 6]: 0.148 log2 fold change; Dose.FC.CTG (ENR+CD organoids; [3]): −0.019 log2 fold change; Dose.FC.CTG (ENR+CD organoids; [4]): 0.361 log2 fold change; Dose.FC.CTG (ENR+CD organoids; [5]): 0.436 log2 fold change; Dose.FC.CTG (ENR+CD organoids; [6]): 0.270 log2 fold change"
COc1c(O)cc2c(c1O)[C@@H]1O[C@H](CO)[C@@H](O)[C@H](O)[C@H]1OC2=O [Bergenin],0.164 log2 fold change,1.432,0.098 log2 fold change,0.852,0.080 log2 fold change,0.699,0.103 log2 fold change,0.898,0.198 log2 fold change,0.108 log2 fold change,0.125 log2 fold change,0.144 log2 fold change,0.288 log2 fold change,,0.245 log2 fold change,,0.205 log2 fold change,,0.344 log2 fold change,,
CCCc1nc2c(C)cc(-c3nc4ccccc4n3C)cc2n1Cc1ccc(-c2ccccc2C(=O)O)cc1 [Telmisartan],,,,,,,,,,,,,,,,,,,,,"Dose.FC.LYZ.NS [1, 3]: 0.139 log2 fold change; Z.LYZ.NS ([1]; dose 0.08 uM): 1.213; Dose.FC.LYZ.NS [1, 4]: 0.129 log2 fold change; Z.LYZ.NS ([1]; dose 0.40 uM): 1.124; Dose.FC.LYZ.NS [1, 5]: 0.057 log2 fold change; Z.LYZ.NS ([1]; dose 2.00 uM): 0.499; Dose.FC.LYZ.NS [1, 6]: −0.007 log2 fold change; Z.LYZ.NS ([1]; dose 10.00 uM): −0.060; Dose.FC.LYZ.S [2, 3]: 0.140 log2 fold change; Dose.FC.LYZ.S [2, 4]: 0.106 log2 fold change; Dose.FC.LYZ.S [2, 5]: 0.063 log2 fold change; Dose.FC.LYZ.S [2, 6]: −0.003 log2 fold change; Dose.FC.CTG (ENR+CD organoids; [3]): 0.134 log2 fold change; Dose.FC.CTG (ENR+CD organoids; [4]): 0.244 log2 fold change; Dose.FC.CTG (ENR+CD organoids; [5]): 0.064 log2 fold change; Dose.FC.CTG (ENR+CD organoids; [6]): 0.230 log2 fold change"
O=C(/C=C\n1cnc(-c2cc(C(F)(F)F)cc(C(F)(F)F)c2)n1)N1CC(F)(F)C1 [KPT-276],,0.492,,0.746,,−1.947,,−2.230,,,,,,0.399,,−0.104,,−0.986,,−1.680,Dose.FC.LYZ.NS (log2 fold change) ([1]; dose 0.08 uM): 0.056; Dose.FC.LYZ.NS (log2 fold change) ([1]; dose 0.40 uM): 0.086; Dose.FC.LYZ.NS (log2 fold change) ([1]; dose 2.00 uM): −0.224; Dose.FC.LYZ.NS (log2 fold change) ([1]; dose 10.00 uM): −0.256; Dose.FC.LYZ.S (log2 fold change) ([2]; dose 0.08 uM): 0.133; Dose.FC.LYZ.S (log2 fold change) ([2]; dose 0.40 uM): 0.148; Dose.FC.LYZ.S (log2 fold change) ([2]; dose 2.00 uM): −0.327; Dose.FC.LYZ.S (log2 fold change) ([2]; dose 10.00 uM): −0.361; Dose.FC.CTG (log2 fold change) (ENR+CD organoids; dose 0.08 uM): 0.167; Dose.FC.CTG (log2 fold change) (ENR+CD organoids; dose 0.40 uM): −0.044; Dose.FC.CTG (log2 fold change) (ENR+CD organoids; dose 2.00 uM): −0.413; Dose.FC.CTG (log2 fold change) (ENR+CD organoids; dose 10.00 uM): −0.703
CCOC(=O)CCNc1cc(N2CCc3ccccc3CC2)nc(-c2ccccn2)n1.Cl [GSK J4 HCl],,0.508,,0.433,,0.153,,−0.006,,,,,,0.297,,0.237,,0.006,,0.558,Dose.FC.LYZ.NS (log2 fold change) ([1]; dose 0.08 uM): 0.058; Dose.FC.LYZ.NS (log2 fold change) ([1]; dose 0.40 uM): 0.050; Dose.FC.LYZ.NS (log2 fold change) ([1]; dose 2.00 uM): 0.018; Dose.FC.LYZ.NS (log2 fold change) ([1]; dose 10.00 uM): −0.001; Dose.FC.LYZ.S (log2 fold change) ([2]; dose 0.08 uM): 0.086; Dose.FC.LYZ.S (log2 fold change) ([2]; dose 0.40 uM): 0.109; Dose.FC.LYZ.S (log2 fold change) ([2]; dose 2.00 uM): 0.041; Dose.FC.LYZ.S (log2 fold change) ([2]; dose 10.00 uM): −0.002; Dose.FC.CTG (log2 fold change) (ENR+CD organoids; dose 0.08 uM): 0.124; Dose.FC.CTG (log2 fold change) (ENR+CD organoids; dose 0.40 uM): 0.099; Dose.FC.CTG (log2 fold change) (ENR+CD organoids; dose 2.00 uM): 0.002; Dose.FC.CTG (log2 fold change) (ENR+CD organoids; dose 10.00 uM): 0.233
VU 0357121,0.079 log2 fold change,0.686,−0.010 log2 fold change,−0.090,0.030 log2 fold change,0.261,−0.027 log2 fold change,−0.237,0.152 log2 fold change,0.034 log2 fold change,0.007 log2 fold change,−0.034 log2 fold change,0.183 log2 fold change,0.438,0.148 log2 fold change,0.352,0.012 log2 fold change,0.029,−0.059 log2 fold change,−0.141,
CC(=O)OCC(=O)NCCCOc1cccc(CN2CCCCC2)c1 [Roxatidine Acetate HCl],,,,,,,,,,,,,,,,,,,,,"Dose.FC.LYZ.NS [1, 3]: 0.149 log2 fold change; Z.LYZ.NS ([1]; dose 0.08 uM): 1.295; Dose.FC.LYZ.NS [1, 4]: −0.029 log2 fold change; Z.LYZ.NS ([1]; dose 0.40 uM): −0.256; Dose.FC.LYZ.NS [1, 5]: −0.001 log2 fold change; Z.LYZ.NS ([1]; dose 2.00 uM): −0.009; Dose.FC.LYZ.NS [1, 6]: −0.061 log2 fold change; Z.LYZ.NS ([1]; dose 10.00 uM): −0.534; Dose.FC.LYZ.S [2, 3]: 0.035 log2 fold change; Dose.FC.LYZ.S [2, 4]: 0.099 log2 fold change; Dose.FC.LYZ.S [2, 5]: −0.053 log2 fold change; Dose.FC.LYZ.S [2, 6]: −0.104 log2 fold change; Dose.FC.CTG (ENR+CD organoids; [3]): −0.040 log2 fold change; Dose.FC.CTG (ENR+CD organoids; [4]): 0.021 log2 fold change; Dose.FC.CTG (ENR+CD organoids; [5]): −0.103 log2 fold change; Dose.FC.CTG (ENR+CD organoids; [6]): −0.236 log2 fold change"
CCCC(=O)Nc1cccc(NC(=O)c2ccccc2Br)c1 [ML161],,,,,,,,,,,,,,,,,,,,,"Z.LYZ.NS ([1]; dose 0.08 uM): 0.158; Z.LYZ.NS ([1]; dose 0.40 uM): −0.237; Z.LYZ.NS ([1]; dose 2.00 uM): 0.323; Z.LYZ.NS ([1]; dose 10.00 uM): −0.494; Dose.FC.LYZ.NS [1, 7]: 0.018 log2 fold change; Dose.FC.LYZ.NS [1, 8]: −0.027 log2 fold change; Dose.FC.LYZ.NS [1, 9]: 0.037 log2 fold change; Dose.FC.LYZ.NS [1, 10]: −0.057 log2 fold change; Dose.FC.LYZ.S [2, 7]: 0.017 log2 fold change; Dose.FC.LYZ.S [2, 8]: −0.027 log2 fold change; Dose.FC.LYZ.S [2, 9]: 0.024 log2 fold change; Dose.FC.LYZ.S [2, 10]: −0.066 log2 fold change; Z.CTG (ENR+CD organoids; dose 0.08 uM): 0.205; Z.CTG (ENR+CD organoids; dose 0.40 uM): 0.067; Z.CTG (ENR+CD organoids; dose 2.00 uM): 0.157; Z.CTG (ENR+CD organoids; dose 10.00 uM): −0.084; Dose.FC.CTG (ENR+CD organoids; [7]): 0.086 log2 fold change; Dose.FC.CTG (ENR+CD organoids; [8]): 0.028 log2 fold change; Dose.FC.CTG (ENR+CD organoids; [9]): 0.066 log2 fold change; Dose.FC.CTG (ENR+CD organoids; [10]): −0.035 log2 fold change"
N#C[C@@H]1CCCN1C(=O)CNC12CC3CC(CC(O)(C3)C1)C2 [Vildagliptin (LAF-237)],0.148 log2 fold change,1.285,0.230 log2 fold change,2.004,0.170 log2 fold change,1.478,0.097 log2 fold change,0.846,0.099 log2 fold change,0.113 log2 fold change,0.038 log2 fold change,0.013 log2 fold change,0.232 log2 fold change,0.553,0.229 log2 fold change,0.547,0.150 log2 fold change,0.358,0.339 log2 fold change,0.811,
